Data reported in patent US6214811A, “Acyclovir diester derivatives” (Drug Innovation & Design, Inc., priority 2000, dated 2001).

Experiments:
[1] = system: pig liver esterase; assay: Incubation with pig liver esterase in phosphate buffered D2O, NMR; format: in vitro ADME
Source text: This assay is described in Glazier, WO 91/19721 entitled "Phosphorus Prodrugs" and can be used to determine suitable hydroxyl or amino protecting groups which can be cleaved in vivo. The entire teachings of […] are incorporated herein by reference. It is to be understood that there are other in vitro assays known to one of ordinary skill in the art employing esterases, amidases or enzymes capable of cleaving carbonate, carbamate, ester and amide groups which can also be used to determine suitable protecting groups.

[2] = system: dermal herpes simplex virus-1 (HSV-1) infection; assay: Dermal HSV-1 infection in guinea pigs, topical treatment (lesion number, lesion area, skin virus titer); format: in vivo, guinea pig (Female Hartley outbred); conditions: for effectiveness in reducing dermal HSV-1 virus infection compared with acyclovir and phosphotriester prodrugs (in words): dermal HSV-1 infection; for lesion number, lesion area and lesion virus titer (summary in words): guinea pigs with dermal HSV-1 infections, compared to vehicle/placebo
Experimental: The formulation for Prodrug 1 contained 5% EL-620 EMULPHOR (polyoxyethylated castor oil) (Rhone Poluenc), 5% CARBOPOL (Carboxypolymethylene, sodium salt) (B. F. Goodrich), 10% ethanol and 2% by weight Prodrug 1. The balance of the formulation consisted of water.
EL-620 EMULPHOR and water were mixed and ultrasonicated to give a clear emulsion, to which the ethanol was added. The prodrug was then added, and the mixture was ultrasonicated. The sodium carbopol was then added to the emulsion and mixed until to homogeneity.
The placebo was prepared identically to the pharmaceutical compositions except that the prodrugs were omitted.
The pharmaceutical compositions were stored at room temperature.
Female Hartley outbred guinea pigs, 400 to 450 grams, were obtained from Charles River Breeding Labs, Wilmington, Mass. Animals were anesthetized with 25 mg/kg ketamine and 5 mg/kg xylazine SQ. Hair on the dorsum from the shoulders to the rump was removed with electric clippers followed by two 5-10 minute applications of a chemical depilatory. A grid of four areas was demarcated with a pen on both sides of the spine at levels corresponding to mid back and rump.
Undiluted HSV-1 virus stock (0.035 ml) was applied to each different area and introduced through the skin at well-spaced sites at ten activations of a six-pronged spring-loaded vaccination instrument (Sterneedle, Pan Ray Division, Ormont Drug, Englewood, N.J.). The day of inoculation is Day 0. Approximately 250 mg of drug or placebo was applied to the areas according to the dosing regimen on Days 1, 2 and 3. Eight guinea pigs were used during the experiments allowing eight comparisons between each drug and its placebo.
On Day 4 regrown hair on the dorsum of the guinea pigs was removed with one 3-4 minute application of a chemical depilatory. HSV lesions were counted and Polaroid pictures of the animals' backs were taken. The animals were sacrificed using CO2 gas and the full thickness skin of the back was removed by dissection. The square of the skin from each of the four treatment areas was placed into 15 mls of tissue culture medium with 2% FES in an ice bath. The samples were then homogenized in a stomacher Lab Blender 80 (Tekmar Co.). Debris was pelleted by centrifugation and the supernatants collected and frozen at -70° C. until assay for infectivity by plaque formation in VERO cells.
The mean and standard deviation for number of lesions, total lesion area and lesion virus titer were computed. Paired data (drug/vehicle) were evaluated by the Wilcoxon signed-rank test using percent differences between log10 derivatives of mean lesions severity at drug-treated sites compared to the Vehicle-treated sites.
Prodrug 2 was formulated as described in Example 1. One Hartley guinea pig was inoculated with HSV-1 as described in Example 1. The guinea pig was treated with Prodrug 2 according to the protocol used in Example 1 for Prodrug 1.

[3] = system: herpes simplex labialis; conditions: cited from earlier work
[4] = guinea pigs, topical, 2% by weight Prodrug 1 formulation, Days 1, 2 and 3, vs placebo (p<0.01)

Row | SMILES | degradation by esterase, products by NMR [1] | effectiveness in reducing dermal HSV-1 virus infection compared with acyclovir and phosphotriester prodrugs (in words) [2] | lesion number, lesion area and lesion virus titer (summary in words) [2] | reduction in lesion area [2, 4] [%] | reduction in lesion number [2, 4] [%] | reduction in skin viral titers [2, 4] [%] | reduction in lesion number, lesion area and skin viral titers (in words) ([2]; one Hartley guinea pig, formulated as in Example 1, compared with Prodrug 1 in Example 1) | effectiveness of oral acyclovir in cold sores ([3]; oral) | response of cold sores to topical acyclovir ([3]; topical)
1 | COC(=O)CC(OP(=O)(O)OCCOCn1cnc2c(=O)[nH]c(N)nc21)c1ccc(OC(=O)C(C)(C)C)cc1 (centres unmarked) [Prodrug 1, Sodium 2-((9-Guanylyl)methyl)oxy)ethyl 1-(4-((2,2-dimethylpropionyl)oxy)-phenyl)-2-((methoxy)carbonyl)ethyl phosphate] | degraded to acyclovir monophosphate and p-hydroxycinnamic | more Effective in Reducing Dermal HSV-1 Virus Infection than Acyclovir | dramatic reduction in lesion number, in lesion area and in lesion virus titer | 79 | 72 | 93 | – | – | –
2 | COC(=O)CC(OP(=O)(O)OCCOCn1cnc2c(=O)[nH]c(N)nc21)c1ccc(OC(C)=O)cc1 (centres unmarked) [Prodrug 2, sodium 2-((9-guanylyl)methyl)oxy)ethyl-1-(4-acetoxyphenyl)-2-((methoxy)carbonyl)ethyl phosphate] | – | more Effective in Reducing Dermal HSV-1 Virus Infection than Acyclovir | dramatic reduction in lesion number, in lesion area and in lesion virus titer | – | – | – | comparable reduction in lesion number, lesion area and in skin viral titers | – | –
3 | Nc1nc2c(ncn2COCCO)c(=O)[nH]1 [acyclovir] | – | – | – | – | – | – | – | only partially effective | do not respond
